According to patent US8889130B2, “Treatment of osteoarthritis and pain” (Abbvie Inc., priority 2011, dated 2014):

Tests used:
[1] = system: mice (male CD1); assay: L5/L6 spinal nerve ligation (SNL) model of neuropathic pain, mechanical allodynia; assay type: in vivo; details: mAbs 900 μg/mouse each, gabapentin 100 mg/kg, 1 hour pretreatment
Description: Whether an anti-IL-1α and anti-IL-1β mAb combination therapy would produce efficacy in neuropathic pain conditions was examined in an L5/L6 spinal nerve ligation (SNL) model in mice (male CD1). Testing was performed six days after SNL surgery, 24 and 72 hours after animals were treated with mAb combination (900 μg/mouse of each mAb). […] The magnitude of efficacy (% MPE) was 72.20±14.39% at 24 hours and 80.62±12.33% at 72 hours (FIG. 19).

[2] = system: human OA patients; details: literature (Cohen et al., ACR 2007); cited from earlier work
[3] = system: mice (female BALB/c); assay: Mouse carrageenan-induced inflammatory pain model, thermal hyperalgesia (paw withdrawal latency); assay type: in vivo; details: for thermal hyperalgesia / antinociceptive effect: Example 8, 48 and 96 hours, single mAb 900 μg, diclofenac 30 mg/kg; for paw withdrawal latency, carrageenan (injured) paw: mAbs 900 μg each at 30 hours, diclofenac 30 mg/kg p.o. 60 minutes before testing
Description: To evaluate whether neutralization of IL-1α and IL-1β produces antinociceptive effects in inflammatory pain conditions, anti-IL-1α and anti-IL-1β mAbs were evaluated for the ability to reverse established pain in the mouse carrageenan paw model of nociceptive pain.
The efficacy of the anti-IL-1α and anti-IL-1β mAbs was evaluated when administered alone or in combination in the mouse carrageenan model (FIG. 15). At 30 hours after intraplantar carrageenan injection: 900 μg of either anti-IL-1α mAb, anti-IL-1β mAb, or their combination were administered in different groups of mice. Thermal hyperalgesia testing was performed 48 and 96 hours after carrageenan. […] The antinociceptive effect in 900 μg combination group was 53±7% at 48 hours, and 82±11% at 96 hours.
Different groups of animals were treated either with vehicle or a combination of anti-IL-1α and anti-IL-1β mAbs (100, 300, or 900 μg/mouse of each mAb) 30 hours after carrageenan injection. […] The antinociceptive effect in 900 μg treatment group was 70±9% at 48 hours, and 62±4% at 96 hours. Diclofenac (30 mg/kg), a non-steroidal, anti-inflammatory analgesic, was included as positive control in the study, and it increased the mean paw withdrawal latency of the injured paw to 7.01±0.58 s at 48 hours and 7.48±0.34 s at 96 hours when administered p.o. 60 minutes before testing (p<0.01 at both time points).

[4] = system: female BALB/c mice; assay: CFA (Complete Freund's Adjuvant) inflammatory pain model, mechanical allodynia (von Frey); assay type: in vivo, mouse; details: 48 hours after CFA, diclofenac 30 mg/kg
Description: The CFA (Complete Freund's Adjuvant) inflammatory pain model was used to test whether the anti-IL-1α and anti-IL-1β mAb combination would produce efficacy against a mechanical endpoint. Therefore, mechanical allodynia was assessed using von Frey monofilaments in animals (female BALB/c mice) 48 hours after they were injected intraplantar with CFA. […] Separate groups of animals were treated either with IgG isotype control or a combination of anti-IL-1α and anti-IL-1β mAbs (900 μg/mouse of each mAb) 30 hours after CFA injection. […] The magnitude of efficacy (% MPE) was 65.51±12.35% (FIG. 17B).

[5] = system: DMM mice; assay: DMM model of osteoarthritis, mechanical allodynia (paw withdrawal threshold); assay type: in vivo, mouse; details: Example 5 (FIG. 12); 6 mg/kg ip twice per week for four weeks; day 28
Description: The DMM model also generates measurable pain in the mice. […] The efficacy of anti-IL-1α/β therapy was studied in the DMM animal model.
The potential of anti-IL-1 therapy to ameliorate pain was tested in the DMM mouse model of OA in terms of mechanical allodynia. Dosing of the combination of IL-1α and IL-1β mAbs was initiated on the day of the surgery and was repeated twice a week for 5 weeks. Animals were treated with PBS vehicle alone, with an IgG isotype control, or with a combination of anti-IL-1α and anti-IL-1β mAbs (at a dose of 6 mg/kg for each mAb). Animals were tested weekly for paw withdrawal threshold. […] This reduction in pain was seen as early as week 1 following treatment (data not shown).
To evaluate the effect of IL-1 therapy in established pain, animals in the IgG control group with established OA and mechanical allodynia were treated on day 35 with the combination of anti-IL-1α and anti-IL-1β monoclonal antibodies and the paw withdrawal threshold was tested 24 hours later (day 36).
The potential of anti-IL-1 therapy to ameliorate pain in the DMM mouse model of OA (see, above) in terms of mechanical allodynia was further evaluated. Dosing of the combination of IL-1α and IL-1β mAbs was initiated on the day of the surgery and was repeated twice a week for 4 weeks. […]

[6] = system: male DBA-1 mice; assay: Collagen-induced arthritis mouse model (rheumatoid arthritis); assay type: in vivo; details: therapeutic mode; 1-3 mg/kg intraperitoneally every other day after disease onset
Description: The therapeutic effects of anti-IL-1α, anti-IL-1β, combined anti-IL-1α/anti-IL-1β, and murine IL-1α/β DVD4-Ig, were evaluated in a collagen-induced arthritis mouse model well known in the art. Briefly, male DBA-1 mice were immunized with bovine type II collagen in CFA at the base of the tail. The mice were boosted with Zymosan intraperitoneally (i.p) at day 21. After disease onset at day 24-27, mice were selected and divided into separate groups of 10 mice each. […] To neutralize IL-1, mice were injected every other day with 1-3 mg/kg of anti-IL-1α mAb, anti-IL-1βmAb, combination of anti-IL-1α and anti-IL-1β mAbs, or murine IL-1α/β DVD4-Ig intraperitoneally. Mice were carefully examined three times a week for the visual appearance of arthritis in peripheral joints, and scores for disease activity determined.

[7] = system: Male SV129 mice; assay: Destabilization of medial meniscus (DMM) model of osteoarthritis, cartilage degeneration (Chambers scores); assay type: in vivo, mouse; details: Example 3.3.6 (FIG. 7); 8 weeks; mAbs 6 mg/kg alone or in combination
From the text: (§1) Male SV129 mice weighing approximately 30 grams, housed 5/cage, were anesthetized on Day 0 with ketamine/xylazine cocktail, administered intraperitoneally (ip), and then the medial collateral ligament was exposed by blunt dissection, and transected to reflect the meniscus toward the femur. The joint space was closed with 8-0 vicryl suture. The skin was closed with wound glue. For sham surgeries, a vertical skin incision was made over the medial aspect of the knee and the joint capsule was opened. The capsule was closed with 8-0 vicryl suture and the skin was closed with wound glue. Groups of animals were then treated with intraperitoneal (ip) injections of antibody or vehicle according to the study design table below. Two sex-matched, age-matched, and strain-matched naïve mice were also included in the study. Animals were euthanized after 8 weeks of treatment, and knee joints were harvested in 10% neutral buffered formalin.
Formalin-fixed samples were decalcified, and specimens were sectioned in the frontal plane into 15 step sections each. Each section was approximately 6 μm thick, and step sections were separated by 70 μm. All slides were stained with toluidine blue (T. Blue). Slides were assessed according to the Chambers method (Chambers et al. (2001) Arthritis Rheum 44:1455-65) for cartilage degeneration (see below) by a board-certified veterinary pathologist. Each of the four cartilage surfaces, the medial femoral condyle (MFC), the medial tibial plateau (MTP), the lateral femoral condyle (LFC), and the lateral tibial plateau (LTP), was scored from 0-6 according to the scale in the table below.
as §1, with “8-0 vicryl suture, and the” for “8-0 vicryl suture and the”, “injections of anti-mIL-1α monoclonal antibody, anti-mIL-1β (alone or in combination), mIL-1α/βDVD-Ig binding protein, or vehicle” for “injections of antibody or vehicle”, “design table below (Table 24). Animals were” for “design table below. Two sex-matched, age-matched, and strain-matched naïve mice were also included in the study. Animals were”, “weeks of treatment and knee” for “weeks of treatment, and knee”
Male SV129 mice weighing approximately 30 grams had the medial collateral ligament exposed by blunt dissection, and transected to reflect the meniscus toward the femur. The joint space was closed with 8-0 vicryl suture. The skin was closed with wound glue. For sham surgeries, a vertical skin incision was made over the medial aspect of the knee and the joint capsule was opened. The capsule was closed with 8-0 vicryl suture, and the skin was closed with wound glue. Groups of animals were then treated per os (po) or via intraperitoneal (ip) injections of vehicle or treatments according to the study design table below. Three sex-matched, age-matched, and strain-matched naïve mice were also included in the study. Animals were euthanized after 4 weeks of treatment, and knee joints were harvested in 10% neutral buffered formalin.

Molecule: NCC1(CC(=O)O)CCCCC1 [gabapentin]
- paw withdrawal threshold (von Frey) ([1]; at 24 hours): 0.858 ± 0.077 g
- paw withdrawal threshold (von Frey) ([1]; at 72 hours): 1.138 ± 0.096 g

Molecule: Anakinra: IL-1 receptor antagonist
- efficacy in OA trials with respect to symptoms and chondroprotection [2]: some efficacy

Molecule: O=C(O)Cc1ccccc1Nc1c(Cl)cccc1Cl [Diclofenac]
- thermal hyperalgesia / antinociceptive effect [3]: significant attenuation of thermal hyperalgesia
- paw withdrawal latency, carrageenan (injured) paw ([3]; Example 9 (FIG. 16A), at 48 hours): 7.01 ± 0.58 s
- paw withdrawal latency, carrageenan (injured) paw ([3]; Example 9 (FIG. 16B), at 96 hours): 7.48 ± 0.34 s
- paw withdrawal threshold, CFA injected paw ([4]; mAbs 900 μg/mouse each 30 hours after CFA, 1 hour pretreatment): 0.359 ± 0.088 g
- magnitude of efficacy (% MPE) ([4]; mAbs 900 μg/mouse each): 64.51±10.20%

B1: 9H10: mouse anti-mouse IL-1α monoclonal antibody (clone 9H10) from IL-1α/β double KO mice (antibody, V domains shown)
VH: QVILKESGPGILQPSQTLSLTCSFSGFSLSTYGTAVNWIRQPSGKGLEWLAQIGSDDRKLYNPFLKSRITLSEDTSNSQVFLKITSVDTEDSATYYCANGVMEYWGLGTSVTVSS
VL: SIVMTQTPKFLLVSAGDRVTITCKASQSVNHDVAWYQQMPGQSPKLLIYFASNRYTGVPDRFTGSGYGTDFTFTISTVQAEDLAVYFCQQDYSSPYTFGGGTKLEIKR
modifications: heavy chain variable domain of 9H10; light chain variable domain of 9H10
notes: mouse anti-mouse IL-1α monoclonal antibody (clone 9H10) from IL-1α/β double KO mice
- paw withdrawal threshold (allodynia) [5]: allodynic (painful)
- reduction in mean arthritis score compared to control group [6]: 10%
- thermal hyperalgesia / antinociceptive effect [3]: no significant antinociceptive effect
- mean sum Chambers scores and mean maximum Chambers scores (cartilage degeneration) [7]: not statistically significant
